Results as given in ChEMBL document CHEMBL4033700, “From a novel HTS hit to potent, selective, and orally bioavailable KDM5 inhibitors” (Bioorg Med Chem Lett, 2017).

Key:
[1] = Half-life in CD-1 mouse plasma at 1 mg/kg, iv or 5 mg/kg, po; type: ADME, organism-based
[2] = biological target: T1, Lysine-specific demethylase 4C (Homo sapiens, UniProt Q9H3R0); assay: Inhibition of recombinant human N-terminal FLAG-tagged KDM4C expressed in baculovirus infected Sf9 insect cells using H3K9me3 peptide as substrate after 30 to 45 mins by TR-FRET assay
T1 sequence (Q9H3R0 whole entry): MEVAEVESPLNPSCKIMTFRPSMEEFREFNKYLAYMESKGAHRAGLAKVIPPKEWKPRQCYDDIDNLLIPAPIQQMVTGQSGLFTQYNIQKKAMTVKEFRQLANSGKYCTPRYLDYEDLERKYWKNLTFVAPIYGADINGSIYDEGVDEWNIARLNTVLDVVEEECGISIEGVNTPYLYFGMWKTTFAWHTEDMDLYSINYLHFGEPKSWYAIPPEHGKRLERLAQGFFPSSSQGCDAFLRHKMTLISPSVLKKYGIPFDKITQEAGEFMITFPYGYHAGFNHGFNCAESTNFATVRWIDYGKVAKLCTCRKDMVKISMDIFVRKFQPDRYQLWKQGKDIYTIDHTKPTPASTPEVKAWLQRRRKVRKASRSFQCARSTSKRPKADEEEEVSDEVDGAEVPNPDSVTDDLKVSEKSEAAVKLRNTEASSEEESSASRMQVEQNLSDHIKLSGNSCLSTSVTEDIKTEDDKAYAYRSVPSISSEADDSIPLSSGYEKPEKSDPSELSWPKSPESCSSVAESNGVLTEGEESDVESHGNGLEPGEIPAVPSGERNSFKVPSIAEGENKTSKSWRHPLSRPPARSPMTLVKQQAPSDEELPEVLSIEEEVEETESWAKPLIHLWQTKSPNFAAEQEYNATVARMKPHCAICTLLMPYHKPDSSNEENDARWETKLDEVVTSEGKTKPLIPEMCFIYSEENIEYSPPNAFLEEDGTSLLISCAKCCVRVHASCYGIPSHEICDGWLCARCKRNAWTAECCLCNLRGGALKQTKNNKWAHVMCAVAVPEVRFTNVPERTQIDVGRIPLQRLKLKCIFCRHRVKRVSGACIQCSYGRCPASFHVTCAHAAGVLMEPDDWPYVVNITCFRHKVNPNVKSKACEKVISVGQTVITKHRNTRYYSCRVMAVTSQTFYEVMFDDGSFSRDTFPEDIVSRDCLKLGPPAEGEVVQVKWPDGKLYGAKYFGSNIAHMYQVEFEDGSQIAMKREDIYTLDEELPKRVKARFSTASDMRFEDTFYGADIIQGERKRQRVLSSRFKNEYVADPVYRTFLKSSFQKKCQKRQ

[3] = Protein binding in mouse plasma; type: ADME, cell-free; conditions: read-out: PPB (converted)
[4] = Hepatic clearance in human liver microsomes; type: ADME, microsome
[5] = Protein binding in rat plasma; type: ADME, cell-free; conditions: read-out: PPB (converted)
[6] = Oral bioavailability in CD-1 mouse at 5 mg/kg; type: ADME, organism-based; conditions: in vivo
[7] = Hepatic clearance in rat hepatocytes; type: ADME, cell-based, Hepatocyte
[8] = Hepatic clearance in rat liver microsomes; type: ADME, microsome
[9] = Protein binding in human plasma; type: ADME, cell-free; conditions: read-out: PPB (converted)
[10] = Hepatic clearance in mouse liver microsomes; type: ADME, microsome
[11] = Volume of distribution in CD-1 mouse plasma at 1 mg/kg, iv or 5 mg/kg, po; type: ADME, organism-based
[12] = Hepatic clearance in human hepatocytes; type: ADME, cell-based, Hepatocyte
[13] = biological target: T2, Lysine-specific demethylase 5A (Homo sapiens, UniProt P29375); assay: Inhibition of recombinant human N-terminal FLAG-tagged KDM5A expressed in baculovirus infected Sf9 insect cells using H3K4me3 peptide as substrate after 30 to 45 mins by TR-FRET assay
[14] = Clearance in CD-1 mouse plasma at 1 mg/kg, iv or 5 mg/kg, po; type: ADME, organism-based
[15] = Hepatic clearance in mouse hepatocytes; type: ADME, cell-based, Hepatocyte
[16] = biological target: T2, Lysine-specific demethylase 5A; assay: Inhibition of KDM5A in human PC9 cells assessed as increase in H3K4me3 level after 5 days by mass-spectrometric method; type: cell-based

T2 sequence (P29375 whole entry): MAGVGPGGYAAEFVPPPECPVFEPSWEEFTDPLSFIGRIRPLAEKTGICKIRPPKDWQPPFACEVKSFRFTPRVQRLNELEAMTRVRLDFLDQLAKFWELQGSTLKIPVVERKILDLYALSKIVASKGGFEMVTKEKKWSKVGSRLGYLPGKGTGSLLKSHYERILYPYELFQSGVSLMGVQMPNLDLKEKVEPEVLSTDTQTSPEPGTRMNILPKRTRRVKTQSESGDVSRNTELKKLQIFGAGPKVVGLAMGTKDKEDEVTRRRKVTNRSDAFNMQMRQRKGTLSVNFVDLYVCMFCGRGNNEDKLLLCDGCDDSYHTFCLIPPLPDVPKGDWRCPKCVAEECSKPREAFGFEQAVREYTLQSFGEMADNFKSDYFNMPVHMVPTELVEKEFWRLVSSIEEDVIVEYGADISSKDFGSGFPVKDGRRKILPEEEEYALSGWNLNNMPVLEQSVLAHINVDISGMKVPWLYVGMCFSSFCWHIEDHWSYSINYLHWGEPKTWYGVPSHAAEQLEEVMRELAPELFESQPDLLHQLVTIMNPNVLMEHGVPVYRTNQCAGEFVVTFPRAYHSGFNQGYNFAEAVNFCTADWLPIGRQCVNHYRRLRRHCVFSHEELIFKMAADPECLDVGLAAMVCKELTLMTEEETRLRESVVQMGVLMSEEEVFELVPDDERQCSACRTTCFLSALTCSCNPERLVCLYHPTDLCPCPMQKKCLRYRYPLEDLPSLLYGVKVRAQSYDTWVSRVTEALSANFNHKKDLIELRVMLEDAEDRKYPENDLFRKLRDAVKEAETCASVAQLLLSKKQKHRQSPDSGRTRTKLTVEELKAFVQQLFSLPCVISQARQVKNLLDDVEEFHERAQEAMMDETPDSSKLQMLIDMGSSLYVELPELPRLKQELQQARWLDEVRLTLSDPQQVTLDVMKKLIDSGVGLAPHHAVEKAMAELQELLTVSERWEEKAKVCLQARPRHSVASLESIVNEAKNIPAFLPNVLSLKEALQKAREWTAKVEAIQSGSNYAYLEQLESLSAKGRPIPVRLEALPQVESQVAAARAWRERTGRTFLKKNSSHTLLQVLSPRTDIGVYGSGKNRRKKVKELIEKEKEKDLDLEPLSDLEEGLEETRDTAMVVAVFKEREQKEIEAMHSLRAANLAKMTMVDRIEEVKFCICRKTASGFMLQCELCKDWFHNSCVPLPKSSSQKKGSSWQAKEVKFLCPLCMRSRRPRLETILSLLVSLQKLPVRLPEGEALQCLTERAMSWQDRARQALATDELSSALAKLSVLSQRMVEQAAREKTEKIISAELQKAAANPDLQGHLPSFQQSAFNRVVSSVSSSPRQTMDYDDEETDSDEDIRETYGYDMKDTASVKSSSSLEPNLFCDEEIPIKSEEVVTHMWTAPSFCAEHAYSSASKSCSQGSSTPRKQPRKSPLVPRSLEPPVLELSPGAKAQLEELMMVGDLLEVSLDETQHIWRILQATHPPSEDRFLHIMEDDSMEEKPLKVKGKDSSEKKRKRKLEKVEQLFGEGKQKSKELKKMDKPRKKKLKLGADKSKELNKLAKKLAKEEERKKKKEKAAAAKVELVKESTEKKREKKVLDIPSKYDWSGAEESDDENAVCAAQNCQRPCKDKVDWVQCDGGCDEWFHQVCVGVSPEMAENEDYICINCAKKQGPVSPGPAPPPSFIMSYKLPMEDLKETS

half-life [1]: 18 min | IC50 [2]: 13.3 µM | fraction unbound [3]: 0.043 | CLhep predicted [4]: 7 mL/min/kg | fraction unbound [5]: 0.027 | bioavailability [6]: 94% | CLhep predicted [7]: 39 mL/min/kg | CLhep predicted [8]: 37 mL/min/kg | fraction unbound [9]: 0.045 | CLhep predicted [10]: 69 mL/min/kg | Vd [11]: 2.1 L/kg | CLhep predicted [12]: 12 mL/min/kg | IC50 [13]: 0.16 µM | clearance [14]: 99.9 mL/min/kg | CLhep predicted [15]: 66 mL/min/kg | EC50 [16]: > 30 µM
SMILES: Cc1cc(-c2cnn(C)c2)cc(C2CCN(C(=O)c3cc(C(C)C)n[nH]3)C2)n1 (stereo in doubt; 9)
